Target: BRD4S-TagBFP reporter (Homo sapiens, UniProt O60885)
Experiment: FACS-based CRISPR/Cas9 BRD4 protein stability screen

Cc1sc2c(c1C)C(c1ccc(Cl)cc1)=N[C@@H](CC(=O)NCCOCCOCCOCCOCCNC(=O)COc1c(Br)cc(/C=C3\C(=O)Nc4ccc(Br)cc43)cc1Br)c1nnc(C)n1-2 [Compound 9] showed a Low_lfc (Gene FBXL18, Mageck_Gene level) of 0.05, a Low_logP (Gene FBXL18, Mageck_Gene level) of 0.07 and a High_lfc (Gene FBXL19, Mageck_Gene level) of -0.41. The High_logP (Gene FBXL19, Mageck_Gene level) was 0, the Low_lfc (Gene FBXL19, Mageck_Gene level) was 0.11 and the Low_logP (Gene FBXL19, Mageck_Gene level) was 0.48. The High_lfc (Gene FBXL20, Mageck_Gene level) was -0.06, the High_logP (Gene FBXL20, Mageck_Gene level) was 0.09 and the Low_lfc (Gene FBXL20, Mageck_Gene level) was -0.11. The Low_logP (Gene FBXL20, Mageck_Gene level) was 0.04, the High_lfc (Gene FBXL21, Mageck_Gene level) was -0.29 and the High_logP (Gene FBXL21, Mageck_Gene level) was 0.09. The Low_lfc (Gene FBXL21, Mageck_Gene level) was -0.29, the Low_logP (Gene FBXL21, Mageck_Gene level) was 0.01 and the High_lfc (Gene FBXL22, Mageck_Gene level) was 0.14. For the same compound, the High_logP (Gene FBXL22, Mageck_Gene level) was 0.24, the Low_lfc (Gene FBXL22, Mageck_Gene level) was 0.36 and the Low_logP (Gene FBXL22, Mageck_Gene level) was 0.63. For the same compound, the High_lfc (Gene FBXO2, Mageck_Gene level) was -0.09, the High_logP (Gene FBXO2, Mageck_Gene level) was 0.03 and the Low_lfc (Gene FBXO2, Mageck_Gene level) was 0.42. It also gave a Low_logP (Gene FBXO2, Mageck_Gene level) of 1.6, a High_lfc (Gene FBXO10, Mageck_Gene level) of 0.22 and a High_logP (Gene FBXO10, Mageck_Gene level) of 0.52. For the same compound, the Low_lfc (Gene FBXO10, Mageck_Gene level) was -0.18, the Low_logP (Gene FBXO10, Mageck_Gene level) was 0.08 and the High_lfc (Gene FBXO11, Mageck_Gene level) was -0.38. The High_logP (Gene FBXO11, Mageck_Gene level) was 0.01, the Low_lfc (Gene FBXO11, Mageck_Gene level) was -0.03 and the Low_logP (Gene FBXO11, Mageck_Gene level) was 0.19. For the same compound, the High_lfc (Gene FBXO15, Mageck_Gene level) was -0.34, the High_logP (Gene FBXO15, Mageck_Gene level) was 0.01 and the Low_lfc (Gene FBXO15, Mageck_Gene level) was -0.22. The Low_logP (Gene FBXO15, Mageck_Gene level) was 0.07, the High_lfc (Gene FBXO16, Mageck_Gene level) was -0.28 and the High_logP (Gene FBXO16, Mageck_Gene level) was 0.17. For the same compound, the Low_lfc (Gene FBXO16, Mageck_Gene level) was -0.34, the Low_logP (Gene FBXO16, Mageck_Gene level) was 0.13 and the High_lfc (Gene FBXO17, Mageck_Gene level) was 0.05. The High_logP (Gene FBXO17, Mageck_Gene level) was 0.04, the Low_lfc (Gene FBXO17, Mageck_Gene level) was -0.01 and the Low_logP (Gene FBXO17, Mageck_Gene level) was 0.24. The High_lfc (Gene FBXO18, Mageck_Gene level) was 0.01, the High_logP (Gene FBXO18, Mageck_Gene level) was 0.35 and the Low_lfc (Gene FBXO18, Mageck_Gene level) was -0.24. For the same compound, the Low_logP (Gene FBXO18, Mageck_Gene level) was 0.06, the High_lfc (Gene FBXO21, Mageck_Gene level) was -0.09 and the High_logP (Gene FBXO21, Mageck_Gene level) was 0.15. For the same compound, the Low_lfc (Gene FBXO21, Mageck_Gene level) was 0.26, the Low_logP (Gene FBXO21, Mageck_Gene level) was 0.57 and the High_lfc (Gene FBXO22, Mageck_Gene level) was 0.33. For the same compound, the High_logP (Gene FBXO22, Mageck_Gene level) was 0.56, the Low_lfc (Gene FBXO22, Mageck_Gene level) was 0.08 and the Low_logP (Gene FBXO22, Mageck_Gene level) was 0.24. For the same compound, the High_lfc (Gene FBXO24, Mageck_Gene level) was 0.01, the High_logP (Gene FBXO24, Mageck_Gene level) was 0.17 and the Low_lfc (Gene FBXO24, Mageck_Gene level) was 0.28. It also gave a Low_logP (Gene FBXO24, Mageck_Gene level) of 0.95, a High_lfc (Gene FBXO25, Mageck_Gene level) of -0.09 and a High_logP (Gene FBXO25, Mageck_Gene level) of 0.13. For the same compound, the Low_lfc (Gene FBXO25, Mageck_Gene level) was -0.06, the Low_logP (Gene FBXO25, Mageck_Gene level) was 1.23 and the High_lfc (Gene FBXO27, Mageck_Gene level) was 0.07. For the same compound, the High_logP (Gene FBXO27, Mageck_Gene level) was 0.26, the Low_lfc (Gene FBXO27, Mageck_Gene level) was 0.17 and the Low_logP (Gene FBXO27, Mageck_Gene level) was 0.61. It also gave a High_lfc (Gene FBXO28, Mageck_Gene level) of 0.25, a High_logP (Gene FBXO28, Mageck_Gene level) of 0.91 and a Low_lfc (Gene FBXO28, Mageck_Gene level) of -0.03. It also gave a Low_logP (Gene FBXO28, Mageck_Gene level) of 0.09, a High_lfc (Gene FBXO30, Mageck_Gene level) of -0.15 and a High_logP (Gene FBXO30, Mageck_Gene level) of 0.06. The Low_lfc (Gene FBXO30, Mageck_Gene level) was 0.12, the Low_logP (Gene FBXO30, Mageck_Gene level) was 0.2 and the High_lfc (Gene FBXO31, Mageck_Gene level) was 0.02. For the same compound, the High_logP (Gene FBXO31, Mageck_Gene level) was 0.11, the Low_lfc (Gene FBXO31, Mageck_Gene level) was 0.28 and the Low_logP (Gene FBXO31, Mageck_Gene level) was 0.85. The High_lfc (Gene FBXO32, Mageck_Gene level) was 0.06, the High_logP (Gene FBXO32, Mageck_Gene level) was 0.14 and the Low_lfc (Gene FBXO32, Mageck_Gene level) was 0.27. The Low_logP (Gene FBXO32, Mageck_Gene level) was 0.47, the High_lfc (Gene FBXO33, Mageck_Gene level) was -0.49 and the High_logP (Gene FBXO33, Mageck_Gene level) was 0. The Low_lfc (Gene FBXO33, Mageck_Gene level) was 0.19, the Low_logP (Gene FBXO33, Mageck_Gene level) was 0.87 and the High_lfc (Gene FBXO34, Mageck_Gene level) was 0.22. For the same compound, the High_logP (Gene FBXO34, Mageck_Gene level) was 0.61, the Low_lfc (Gene FBXO34, Mageck_Gene level) was 0.1 and the Low_logP (Gene FBXO34, Mageck_Gene level) was 0.25. It also gave a High_lfc (Gene FBXO36, Mageck_Gene level) of -0.13, a High_logP (Gene FBXO36, Mageck_Gene level) of 0.23 and a Low_lfc (Gene FBXO36, Mageck_Gene level) of -0.41. For the same compound, the Low_logP (Gene FBXO36, Mageck_Gene level) was 0.06, the High_lfc (Gene FBXO38, Mageck_Gene level) was -0.17 and the High_logP (Gene FBXO38, Mageck_Gene level) was 0.01. For the same compound, the Low_lfc (Gene FBXO38, Mageck_Gene level) was 0.33, the Low_logP (Gene FBXO38, Mageck_Gene level) was 0.72 and the High_lfc (Gene FBXO39, Mageck_Gene level) was 0. It also gave a High_logP (Gene FBXO39, Mageck_Gene level) of 0.18, a Low_lfc (Gene FBXO39, Mageck_Gene level) of 0.15 and a Low_logP (Gene FBXO39, Mageck_Gene level) of 0.56. The “CRL substrate receptor scoring as top hit (gene required for BRD4 degradation)” value (KBM7 BRD4-BFP reporter cells, 9 0.5 µM, 10 1 µM, dBET6 10 nM, 6 hours) was “DCAF11”, the High_lfc (gene FBXO3) was 0.05 and the High_logP (gene FBXO3) was 0.25. The Low_lfc (gene FBXO3) was -0.2, the Low_logP (gene FBXO3) was 0.19 and the High_lfc (gene FBXO4) was 0.12. For the same compound, the High_logP (gene FBXO4) was 0.38, the Low_lfc (gene FBXO4) was -0.12 and the Low_logP (gene FBXO4) was 0.07. For the same compound, the High_lfc (gene FBXO5) was -0.26, the High_logP (gene FBXO5) was 0.37 and the Low_lfc (gene FBXO5) was -0.71. For the same compound, the Low_logP (gene FBXO5) was 0.02, the High_lfc (gene FBXO6) was -0.04 and the High_logP (gene FBXO6) was 0.23. It also gave a Low_lfc (gene FBXO6) of -0.19, a Low_logP (gene FBXO6) of 0.36 and a High_lfc (gene FBXO7) of 0.07. The High_logP (gene FBXO7) was 0.57, the Low_lfc (gene FBXO7) was 0.01 and the Low_logP (gene FBXO7) was 0.76. It also gave a High_lfc (gene FBXO8) of 0.03, a High_logP (gene FBXO8) of 0.11 and a Low_lfc (gene FBXO8) of -0.03. For the same compound, the Low_logP (gene FBXO8) was 0.11, the High_lfc (gene FBXO9) was -0.02 and the High_logP (gene FBXO9) was 0.04. The Low_lfc (gene FBXO9) was -0.02, the Low_logP (gene FBXO9) was 0.52 and the High_lfc (gene FBXO40) was -0.13. For the same compound, the High_logP (gene FBXO40) was 0.02, the Low_lfc (gene FBXO40) was -0.27 and the Low_logP (gene FBXO40) was 0.13. The High_lfc (gene FBXO41) was 0.17, the High_logP (gene FBXO41) was 0.26 and the Low_lfc (gene FBXO41) was -0.12. It also gave a Low_logP (gene FBXO41) of 0.01, a High_lfc (gene FBXO42) of 0.01 and a High_logP (gene FBXO42) of 0.18. For the same compound, the Low_lfc (gene FBXO42) was 0.28, the Low_logP (gene FBXO42) was 1.35 and the High_lfc (gene FBXO43) was 0.05. The High_logP (gene FBXO43) was 0.29, the Low_lfc (gene FBXO43) was 0.06 and the Low_logP (gene FBXO43) was 0.07. It also gave a High_lfc (gene FBXO44) of 0, a High_logP (gene FBXO44) of 0.11 and a Low_lfc (gene FBXO44) of 0.17. It also gave a Low_logP (gene FBXO44) of 0.24, a High_lfc (gene FBXO45) of 0.31 and a High_logP (gene FBXO45) of 0.64. It also gave a Low_lfc (gene FBXO45) of -0.13, a Low_logP (gene FBXO45) of 0.16 and a High_lfc (gene FBXO46) of 0.28. For the same compound, the High_logP (gene FBXO46) was 0.48, the Low_lfc (gene FBXO46) was 0.32 and the Low_logP (gene FBXO46) was 1.6. For the same compound, the High_lfc (gene FBXO47) was -0.53, the High_logP (gene FBXO47) was 0.06 and the Low_lfc (gene FBXO47) was -0.35. It also gave a Low_logP (gene FBXO47) of 0.03, a High_lfc (gene FBXO48) of -0.41 and a High_logP (gene FBXO48) of 0.11. The Low_lfc (gene FBXO48) was 0, the Low_logP (gene FBXO48) was 0.25 and the High_lfc (gene FBXW2) was -0.12. The High_logP (gene FBXW2) was 0.08, the Low_lfc (gene FBXW2) was -0.53 and the Low_logP (gene FBXW2) was 0.05. It also gave a High_lfc (gene FBXW4) of -0.31, a High_logP (gene FBXW4) of 0.02 and a Low_lfc (gene FBXW4) of 0.22. The Low_logP (gene FBXW4) was 0.62, the High_lfc (gene FBXW5) was -0.14 and the High_logP (gene FBXW5) was 0.16. It also gave a Low_lfc (gene FBXW5) of 0.15, a Low_logP (gene FBXW5) of 0.39 and a High_lfc (gene FBXW7) of 0.41. For the same compound, the High_logP (gene FBXW7) was 1.48, the Low_lfc (gene FBXW7) was -0.31 and the Low_logP (gene FBXW7) was 0.05. It also gave a High_lfc (gene FBXW8) of -0.18, a High_logP (gene FBXW8) of 0.19 and a Low_lfc (gene FBXW8) of 0.19. The Low_logP (gene FBXW8) was 0.52, the High_logP (gene FBXW9) was 0 and the High_lfc (gene FBXW10) was -0.05. The High_logP (gene FBXW10) was 0.14, the Low_lfc (gene FBXW10) was -0.09 and the Low_logP (gene FBXW10) was 0.05. It also gave a High_lfc (gene FBXW11) of 0.12, a High_logP (gene FBXW11) of 0.29 and a Low_lfc (gene FBXW11) of -0.29. The Low_logP (gene FBXW11) was 0.06, the High_lfc (gene FBXW12) was -0.19 and the High_logP (gene FBXW12) was 0.02. The Low_lfc (gene FBXW12) was -0.05, the Low_logP (gene FBXW12) was 0.24 and the High_logP (gene FEM1A) was 0.43.
